Assay results published in patent publication US10125135B2, “Chemical compounds” (AstraZeneca AB, priority 2016, dated 2018).

molecular target: ERα receptor in MCF-7 human ductal carcinoma breast cell line (Homo sapiens (Human), UniProt P03372); experiment: MCF-7 ER down regulation assay (immuno-fluorescence); type: cell-based; details: MCF-7 cells, 18-22 hours incubation; read-out: ER down regulation IC50 value
Protocol: MCF-7 ER Down Regulation Assay
The ability of compounds to down-regulate Estrogen Receptor (ER) numbers was assessed in a cell based immuno-fluorescence assay using the MCF-7 human ductal carcinoma breast cell line. MCF-7 cells were revived directly from a cryovial (approx 5×10^6 cells) in Assay Medium (phenol red free Dulbecco's Modified Eagle's medium (DMEM) (Sigma D5921) containing 2mM L-Glutamine and 5% (v/v) Charcoal/Dextran treated foetal calf serum. Cells were syringed once using a sterile 18 G×1.5 inch (1.2×40 mm) broad gauge needle and cell density was measured using a Coulter Counter (Beckman). Cells were further diluted in Assay Medium to a density of 3.75×10^4 cells per mL and 40 μL per well added to transparent bottomed, black, tissue culture treated 384 well plates (Costar, No. 3712) using a Thermo Scientific Matrix WellMate or Thermo Multidrop. Following cell seeding, plates were incubated overnight at 37° C., 5% CO2 (Liconic carousel incubator). Test data was generated using the LabCyte Echo™ model 555 compound reformatter which is part of an automated workcell (Integrated Echo 2 workcell). 10 mM compound stock solutions of the test compounds were used to generate a 384 well compound dosing plate (Labcyte P-05525-CV1). […] 40 μΛ of DMSO added to wells in row P on the source plate allow for DMSO normalisation across the dose range. To dose the control wells 40 μL of DMSO was added to row O1 and 40 μL of 100 μM fulvestrant in DMSO was added to row O3 on the compound source plate. […] Compounds were dispensed onto the cell plates with a compound source plate prepared as above producing a 12 pt duplicate 3 μM to 3 pM dose range with 3 fold dilutions and one final 10 fold dilution using the Integrated Echo 2 workcell. […] Cells were fixed at room temperature for 20 mins before being washed two times with 250 μL PBS/Proclin (PBS with a Biocide preservative) using a BioTek platewasher, 40 μL of PBS/Proclin was then added to all wells and the plates stored at 4° C. The fixing method described above was carried out on the Integrated Echo 2 workcell. Immunostaining was performed using an automated AutoElisa workcell. The PBS/Proclin was aspirated from all wells and the cells permeabilised with 40 μL PBS containing 0.5% Tween™ 20 (v/v) for 1 hour at room temperature. The plates were washed three times in 250 μL of PBS/0.05% (v/v) Tween 20 with Proclin (PBST with a Biocide preservative) and then 20 μL of ERα (SP1) Rabbit monoclonal antibody (Thermofisher) 1:1000 in PBS/Tween™/3% (w/v) Bovine Serum Albumin was added. The plates were incubated overnight at 4° C. (Liconic carousel incubator) and then washed three times in 250 μL of PBS/0.05% (v/v) Tween™ 20 with Proclin (PBST). The plates were then incubated with 20 μL/well of a goat anti-rabbit IgG AlexaFluor 594 or goat anti-rabbit AlexaFluor 488 antibody (Molecular Probes) with Hoechst at 1:5000 in PBS/Tween™/3% (w/v) Bovine Serum Albumin for lhour at room temperature. The plates were then washed three times in 250 μL of PBS/0.05% (v/v) Tween™ 20 with Proclin (PBST with a Biocide preservative). 20 μL of PBS was added to each well and the plates covered with a black plate seal and stored at 4° C. before being read. Plates were read using a Cellomics Arrayscan reading the 594 nm (24 hr time point) or 488 nm (5 hr timepoint) fluorescence to measure the ERα receptor level in each well. The mean total intensity was normalized for cell number giving the total intensity per cell.

ERα receptor in MCF-7 human ductal carcinoma breast cell line, sequence (P03372 whole entry): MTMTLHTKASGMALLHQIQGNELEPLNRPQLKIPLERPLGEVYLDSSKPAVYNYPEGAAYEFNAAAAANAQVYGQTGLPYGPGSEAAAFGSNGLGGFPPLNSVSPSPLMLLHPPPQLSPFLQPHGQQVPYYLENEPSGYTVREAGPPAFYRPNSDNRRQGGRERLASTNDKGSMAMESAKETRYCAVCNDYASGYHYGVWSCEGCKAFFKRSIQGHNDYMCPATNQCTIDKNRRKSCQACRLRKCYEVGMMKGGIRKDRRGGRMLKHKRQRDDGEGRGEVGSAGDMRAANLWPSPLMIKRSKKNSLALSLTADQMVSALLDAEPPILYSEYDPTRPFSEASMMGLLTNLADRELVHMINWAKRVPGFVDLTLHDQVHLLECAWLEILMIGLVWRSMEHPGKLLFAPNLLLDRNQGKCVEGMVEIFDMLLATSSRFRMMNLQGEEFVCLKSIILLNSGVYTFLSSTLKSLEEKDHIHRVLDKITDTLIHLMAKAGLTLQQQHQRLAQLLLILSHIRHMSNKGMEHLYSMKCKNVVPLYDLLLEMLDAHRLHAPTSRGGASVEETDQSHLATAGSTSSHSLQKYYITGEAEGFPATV

Structure (SMILES) | DC50
COCC(C)(F)CN1[C@H](c2ccc(OCCN3CC(CF)C3)cc2OC)c2ccc3[nH]ncc3c2C[C@H]1C (single isomer, unassigned) [Example 16] | 0.44 nM
COCC(C)(F)CN1[C@H](c2ccc(OCCN3CC(CF)C3)cc2OC)c2ccc3[nH]ncc3c2C[C@H]1C (single isomer, unassigned) [Example 17] | 0.24 nM
COc1cc(OCCN2CC(CF)C2)ccc1[C@@H]1c2ccc3[nH]ncc3c2C[C@@H](C)N1CC(C)(F)CF (single isomer, unassigned) [Example 20] | 0.13 nM
COc1cc(OCCN2CC(CF)C2)ccc1[C@@H]1c2ccc3[nH]ncc3c2C[C@@H](C)N1CC(C)(F)CF (single isomer, unassigned) [Example 21] | 0.13 nM
C[C@@H]1Cc2c(ccc3[nH]ncc23)[C@@H](c2c(F)cc(OCCN3CC(CF)C3)cc2F)N1CC(F)CF (single isomer, unassigned) [Example 34] | 0.28 nM
C[C@@H]1Cc2c(ccc3[nH]ncc23)[C@@H](c2c(F)cc(OCCN3CC(CF)C3)cc2F)N1CC(F)CF (single isomer, unassigned) [Example 35] | 0.26 nM
COc1cc(OCCN2CC(CF)C2)ccc1[C@@H]1c2ccc3[nH]ncc3c2C[C@@H](C)N1CC(C)(F)F [Example 11, (6S,8R)-7-(2,2-difluoropropyl)-6-(4-(2-(3-(fluoromethyl)azetidin-1-yl)ethoxy)-2-methoxyphenyl)-8-methyl-6,7,8,9-tetrahydro-3H-pyrazolo[4,3-f]isoquinoline] | 0.036 nM
COc1cc(OCCN2CC(CF)C2)ccc1[C@@H]1c2ccc3[nH]ncc3c2C[C@@H](C)N1CC1(F)COC1 [Example 13, (6S,8R)-6-(4-(2-(3-(fluoromethyl)azetidin-1-yl)ethoxy)-2-methoxyphenyl)-7-((3-fluorooxetan-3-yl)methyl)-8-methyl-6,7,8,9-tetrahydro-3H-pyrazolo[4,3-f]isoquinoline] | 0.23 nM
COc1cc(OCCN2CC(C)C2)ccc1[C@@H]1c2ccc3[nH]ncc3c2C[C@@H](C)N1CC(C)(C)F [Example 23, (6S,8R)-7-(2-fluoro-2-methylpropyl)-6-(2-methoxy-4-(2-(3-methylazetidin-1-yl)ethoxy)phenyl)-8-methyl-6,7,8,9-tetrahydro-3H-pyrazolo[4,3-f]isoquinoline] | 0.24 nM
CC(C)CN1C(c2c(F)cc(OCCN3CC(CF)C3)cc2F)c2ccc3[nH]ncc3c2CC1(C)C (stereo not drawn) [Example 36, 6-(2,6-difluoro-4-(2-(3-(fluoromethyl)azetidin-1-yl)ethoxy)phenyl)-7-isobutyl-8,8-dimethyl-6,7,8,9-tetrahydro-3H-pyrazolo[4,3-f]isoquinoline] | 0.25 nM
CC(C)(F)CN1C(c2c(F)cc(OCCN3CC(CF)C3)cc2F)c2ccc3[nH]ncc3c2CC1(C)C (stereo not drawn) [Example 37, 6-(2,6-difluoro-4-(2-(3-(fluoromethyl)azetidin-1-yl)ethoxy)phenyl)-7-(2-fluoro-2-methylpropyl)-8,8-dimethyl-6,7,8,9-tetrahydro-3H-pyrazolo[4,3-f]isoquinoline] | 0.16 nM
C[C@@H]1Cc2c(ccc3[nH]ncc23)[C@@H](c2ccc(OCCN3CC(CF)C3)cc2C#N)N1CC1(F)CC1 [Example 39, 2-((6S,8R)-7-((1-fluorocyclopropyl)methyl)-8-methyl-6,7,8,9-tetrahydro-3H-pyrazolo[4,3-f]isoquinolin-6-yl)-5-(2-(3-(fluoromethyl)azetidin-1-yl)ethoxy)benzonitrile] | 0.17 nM
C[C@@H]1Cc2c(ccc3[nH]ncc23)[C@@H](c2ccc(OCCN3CC(CF)C3)cn2)N1CC(C)(F)F [Example 41, (6S,8R)-7-(2,2-difluoropropyl)-6-(5-(2-(3-(fluoromethyl)azetidin-1-yl)ethoxy)pyridin-2-yl)-8-methyl-6,7,8,9-tetrahydro-3H-pyrazolo[4,3-f]isoquinoline] | 0.29 nM
COc1cc(OCCN2CC(CF)C2)ncc1[C@@H]1c2ccc3[nH]ncc3c2C[C@@H](C)N1CC1(F)CC1 [Example 42, (6S,8R)-7-((1-fluorocyclopropyl)methyl)-6-(6-(2-(3-(fluoromethyl)azetidin-1-yl)ethoxy)-4-methoxypyridin-3-yl)-8-methyl-6,7,8,9-tetrahydro-3H-pyrazolo[4,3-f]isoquinoline] | 0.59 nM

Further lines, results first:

DC50 | Structure (SMILES)
0.051 nM | COc1cc(OCCN2CC(CF)C2)ccc1[C@@H]1c2ccc3[nH]ncc3c2C[C@@H](C)N1CC(F)(F)F [Example 12, (6S,8R)-6-(4-(2-(3-(fluoromethyl)azetidin-1-yl)ethoxy)-2-methoxyphenyl)-8-methyl-7-(2,2,2-trifluoroethyl)-6,7,8,9-tetrahydro-3H-pyrazolo[4,3-f]isoquinoline]
0.15 nM | COc1cc(OCCN2CC(CF)C2)ccc1[C@@H]1c2ccc3[nH]ncc3c2C[C@@H](C)N1CC(F)(F)CO [Example 14, 2,2-difluoro-3-((6S,8R)-6-(4-(2-(3-(fluoromethyl)azetidin-1-yl)ethoxy)-2-methoxyphenyl)-8-methyl-3,6,8,9-tetrahydro-7H-pyrazolo[4,3-f]isoquinolin-7-yl)propan-1-ol]
0.091 nM | COCC(F)(F)CN1[C@H](c2ccc(OCCN3CC(CF)C3)cc2OC)c2ccc3[nH]ncc3c2C[C@H]1C [Example 15, (6S,8R)-7-(2,2-difluoro-3-methoxypropyl)-6-(4-(2-(3-(fluoromethyl)azetidin-1-yl)ethoxy)-2-methoxyphenyl)-8-methyl-6,7,8,9-tetrahydro-3H-pyrazolo[4,3-f]isoquinoline]
0.15 nM | COc1cc(OCCN2CC(CF)C2)ccc1[C@@H]1c2ccc3[nH]ncc3c2C[C@@H](C)N1CC(F)(F)CF [Example 22, (6S,8R)-6-(4-(2-(3-(fluoromethyl)azetidin-1-yl)ethoxy)-2-methoxyphenyl)-8-methyl-7-(2,2,3-trifluoropropyl)-6,7,8,9-tetrahydro-3H-pyrazolo[4,3-f]isoquinoline]
0.11 nM | COc1cc(OCCN2CC(CF)C2)cc(F)c1[C@@H]1c2ccc3[nH]ncc3c2C[C@@H](C)N1CC(C)(F)F [Example 25, (6S,8R)-7-(2,2-difluoropropyl)-6-(2-fluoro-4-(2-(3-(fluoromethyl)azetidin-1-yl)ethoxy)-6-methoxyphenyl)-8-methyl-6,7,8,9-tetrahydro-3H-pyrazolo[4,3-f]isoquinoline]
0.13 nM | COc1cc(OCCN2CC(CF)C2)cc(F)c1[C@@H]1c2ccc3[nH]ncc3c2C[C@@H](C)N1CC(F)(F)CO [Example 26, 2,2-difluoro-3-((6S,8R)-6-(2-fluoro-4-(2-(3-(fluoromethyl)azetidin-1-yl)ethoxy)-6-methoxyphenyl)-8-methyl-8,9-dihydro-3H-pyrazolo[4,3-f]isoquinolin-7(6H)-yl)propan-1-ol]
0.059 nM | COc1cc(OCCN2CC(CF)C2)cc(F)c1[C@@H]1c2ccc3[nH]ncc3c2C[C@@H](C)N1CC(F)(F)CF [Example 27, (6S,8R)-6-(2-fluoro-4-(2-(3-(fluoromethyl)azetidin-1-yl)ethoxy)-6-methoxyphenyl)-8-methyl-7-(2,2,3-trifluoropropyl)-6,7,8,9-tetrahydro-3H-pyrazolo[4,3-f]isoquinoline]

same assay, conditions: MCF-7 cells; >90% unless otherwise stated

% downregulation (in brackets) in ER down regulation assay | Structure (SMILES)
56% | COCC(C)(F)CN1[C@H](c2ccc(OCCN3CC(CF)C3)cc2OC)c2ccc3[nH]ncc3c2C[C@H]1C (single isomer, unassigned) [Example 16]
67% | COc1cc(OCCN2CC(C)C2)ccc1[C@@H]1c2ccc3[nH]ncc3c2C[C@@H](C)N1CC(C)(C)F [Example 23, (6S,8R)-7-(2-fluoro-2-methylpropyl)-6-(2-methoxy-4-(2-(3-methylazetidin-1-yl)ethoxy)phenyl)-8-methyl-6,7,8,9-tetrahydro-3H-pyrazolo[4,3-f]isoquinoline]
<50% | COc1cc(OCCN2CC(OC)C2)ccc1[C@@H]1c2ccc3[nH]ncc3c2C[C@@H](C)N1CC(C)(C)F [Example 24, (6S,8R)-7-(2-fluoro-2-methylpropyl)-6-(2-methoxy-4-(2-(3-methoxyazetidin-1-yl)ethoxy)phenyl)-8-methyl-6,7,8,9-tetrahydro-3H-pyrazolo[4,3-f]isoquinoline]
